Reference: patent EP0888340B1, “4-(BENZO-1,3-DIOXOLYL)-PYRROLIDINE-3-CARBOXYLIC ACID DERIVATIVES AS ENDOTHELIN ANTAGONISTS” (Abbott Laboratories, priority 1996, dated 1997)

Biological target: T1, ETB Receptor (Sus scrofa, UniProt P35463)
T1 construct: Porcine cerebellum was homogenized in 25 volumes (w/v) of 10 mM Hepes (pH 7.4); from tissue; host or cells: porcine cerebellum membranes
T1 sequence (P35463 27-443): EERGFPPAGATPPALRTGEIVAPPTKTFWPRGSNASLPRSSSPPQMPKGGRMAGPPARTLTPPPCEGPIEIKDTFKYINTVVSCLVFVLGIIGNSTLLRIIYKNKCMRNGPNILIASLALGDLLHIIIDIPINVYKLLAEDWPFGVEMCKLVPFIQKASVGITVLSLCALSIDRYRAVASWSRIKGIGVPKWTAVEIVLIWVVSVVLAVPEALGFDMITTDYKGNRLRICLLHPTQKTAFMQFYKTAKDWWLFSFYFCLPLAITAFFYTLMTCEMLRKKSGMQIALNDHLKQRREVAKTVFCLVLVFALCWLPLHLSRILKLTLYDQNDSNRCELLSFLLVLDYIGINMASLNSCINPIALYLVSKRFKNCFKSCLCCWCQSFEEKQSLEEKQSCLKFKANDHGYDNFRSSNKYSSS
Test: ETB receptor binding assay: [125I]ET-3 binding to membranes
Conditions: test compound 1 µM; displacement of 0.1 nM [125I]ET-3; Porcine cerebellum membranes; 4 hours at 25 °C
Method: Preparation of membranes from Porcine cerebellum:
Porcine cerebellum was homogenized in 25 volumes (w/v) of 10 mM Hepes (pH 7.4) containing 0.25 M sucrose and protease inhibitors (3 mM EDTA, 0.1 mM PMSF, and 5 µg/ml Pepstatin A) by 3-10 sec polytron at 13,500 rpm with 10 sec intervals. The mixture was centrifuged at 1000xg for 10 min. The supernatant was collected and centrifuged at 30,000xg for 30 min. The precipitate was resuspended in Buffer A (20 mM Tris, 100 mM NaCl, 10 mM MgCl2, pH 7.4) containing the aforementioned protease inhibitors and centrifuged again. The final pellet was resuspended in Buffer A containing protease inhibitors and stored at -80°C until used. Protein content was determined by the Bio-Rad dye-binding protein assay.
[^125I]ET-3 binding to membranes:
Binding assays were performed in 96-well microtiter plates pretreated with 0.1% BSA. Membranes prepared from cells were diluted ∼100 fold in Buffer B (20 mM Tris, 100 mM NaCl, 10 mM MgCl2, pH 7.4, with 0.2% BSA, 0.1 mM PMSF, 5 µg/mL Pepstatin A, 0.025% bacitracin, and 3 mM EDTA) to a final concentration of 0.2 mg/mL of protein. In competition studies, membranes (0.02 mg) were incubated with 0.1 nM of [^125I]ET-3 in Buffer B (final volume: 0.2 mL) in the presence of increasing concentrations of unlabeled ET-3 or a test compound for 4 hours at 25 °C. After incubation, unbound ligands were separated from bound ligands by a vacuum filtration method using glass-fiber filter strips in PHD cell harvesters (Cambridge Technology, Inc., MA), followed by washing the filter strips with saline (1 mL) for three times. Nonspecific binding was determined in the presence of 1 µM ET-1. The per cent inhibition at a concentration of 1 µM is shown. […]

inhibition at 1 µM [%] | SMILES
96.4 | COc1ccc([C@H]2[C@H](C(=O)O)[C@@H](c3ccc4c(c3)OCO4)CN2CC(=O)Nc2c(C)cc(C)cc2C)cc1 (racemic) [Example 1, trans,trans-2-(4-Methoxyphenyl)-4-(1,3-benzodioxol-5-yl)-1-((2,4,6-trimethyl)phenylaminocarbonylmethyl)-pyrrolidine-3-carboxylic acid]
98.8 | CCc1cccc(OC)c1NC(=O)CN1C[C@H](c2ccc3c(c2)OCO3)[C@@H](C(=O)O)[C@@H]1c1ccc(OC)cc1 [Example 27, trans,trans-2-(4-Methoxyphenyl)-4-(1,3-benzodioxol-5-yl)-1-(N-(2-ethyl-6-methoxy)phenylaminocarbonylmethyl)-pyrrolidine-3-carboxylic acid]
99.1 | CCOc1ccc([C@H]2[C@H](C(=O)O)[C@@H](c3ccc4c(c3)OCO4)CN2CC(=O)Nc2c(CC)cccc2CC)cc1 [Example 23, (2R,3R,4S)-2-(4-ethoxyphenyl)-4-(1,3-benzodioxol-5-yl)-1-((2,6-diethyl)phenylaminocarbonylmethyl)-pyrrolidine-3-carboxylic acid]
94.9 | CCc1cccc(C)c1NC(=O)CN1C[C@H](c2ccc3c(c2)OCO3)[C@@H](C(=O)O)[C@@H]1c1ccc(OC)cc1 [Example 18, trans,trans-2-(4-methoxyphenyl)-4-(1,3-benzodioxol-5-yl)-1-((2-ethyl-6-methyl)phenylaminocarbonylmethyl)-pyrrolidine-3-carboxylic acid]
95.7 | CCc1cc([N+](=O)[O-])cc(CC)c1NC(=O)CN1C[C@H](c2ccc3c(c2)OCO3)[C@@H](C(=O)O)[C@@H]1c1ccc(OC)cc1 [Example 25, trans,trans-2-(4-methoxyphenyl)-4-(1,3-benzodioxol-5-yl)-1-((4-nitro-2,6-diethyl)phenylaminocarbonylmethyl)-pyrrolidine-3-carboxylic acid]
95.3 | CCc1cc(C)cc(CC)c1NC(=O)CN1C[C@H](c2ccc3c(c2)OCO3)[C@@H](C(=O)O)[C@@H]1c1ccc(OC)cc1 [Example 22, trans,trans-2-(4-methoxyphenyl)-4-(1,3-benzodioxol-5-yl)-1-((2,6-diethyl-4-methyl)phenylaminocarbonylmethyl)-pyrrolidine-3-carboxylic acid]
94 | CCc1cccc(CC)c1NC(=O)CN1C[C@H](c2ccc3c(c2)OCO3)[C@@H](C(=O)O)[C@@H]1c1ccc(OC)cc1 (racemic) [Example 4, trans,trans-2-(4-Methoxyphenyl)-4-(1,3-benzodioxol-5-yl)-1-((2,6-diethyl)phenylaminocarbonylmethyl)-pyrrolidine-3-carboxylic acid]
97.1 | CCc1cc(Br)cc(CC)c1NC(=O)CN1C[C@H](c2ccc3c(c2)OCO3)[C@@H](C(=O)O)[C@@H]1c1ccc(OC)cc1 [Example 17, trans,trans-2-(4-methoxyphenyl)-4-(1,3-benzodioxol-5-yl)-1-((4-bromo-2,6-diethyl)phenylaminocarbonylmethyl)-pyrrolidine-3-carboxylic acid]
93.3 | CCc1cc(C(=O)O)cc(CC)c1NC(=O)CN1C[C@H](c2ccc3c(c2)OCO3)[C@@H](C(=O)O)[C@@H]1c1ccc(OC)cc1 [Example 24, trans,trans-2-(4-methoxyphenyl)-4-(1,3-benzodioxol-5-yl)-1-((4-carboxy-2,6-diethyl)phenylaminocarbonylmethyl)-pyrrolidine-3-carboxylic acid]
82.1 | CCCOc1ccc([C@H]2[C@H](C(=O)O)[C@@H](c3ccc4c(c3)OCO4)CN2CC(=O)Nc2c(C)cc(C)cc2C)cc1 (racemic) [Example 3, trans,trans-2-(4-Propoxyphenyl)-4-(1,3-benzodioxol-5-yl)-1-((2,4,6-trimethyl)phenylaminocarbonylmethyl)-pyrrolidine-3-carboxylic acid]
92.9 | CCc1cccc(CC)c1NC(=O)CN1C[C@H](c2ccc3c(c2)OCO3)[C@@H](C(=O)O)[C@@H]1c1ccc(OC)c(F)c1 (racemic) [Example 6, trans,trans-2-(3-Fluoro-4-methoxyphenyl)-4-(1,3-benzodioxol-5-yl)-1-((2,6-diethyl)phenylaminocarbonylmethyl)-pyrrolidine-3-carboxylic acid]
95.2 | CCOc1ccc([C@H]2[C@H](C(=O)O)[C@@H](c3ccc4c(c3)OCO4)CN2CC(=O)Nc2c(CC)cccc2CC)cc1 (racemic) [Example 10, trans,trans-2-(4-ethoxyphenyl)-4-(1,3-benzodioxol-5-yl)-1-((2,6-diethyl)phenylaminocarbonylmethyl)-pyrrolidine-3-carboxylic acid]

More lines, now with the values behind:

SMILES | inhibition at 1 µM [%]
COc1ccc([C@H]2[C@H](C(=O)O)[C@@H](c3ccc4c(c3)OCO4)CN2CC(=O)Nc2c(C)cc(C)cc2C)cc1F (racemic) [Example 2, trans,trans-2-(3-Fluoro-4-methoxyphenyl)-4-(1,3-benzodioxol-5-yl)-1-((2,4,6-trimethyl)phenylaminocarbonylmethyl)-pyrrolidine-3-carboxylic acid] | 91.5
CCCOc1ccc([C@H]2[C@H](C(=O)O)[C@@H](c3ccc4c(c3)OCO4)CN2CC(=O)Nc2c(CC)cccc2CC)cc1 (racemic) [Example 5, trans,trans-2-(4-Propoxyphenyl)-4-(1,3-benzodioxol-5-yl)-1-((2,6-diethyl)phenylaminocarbonylmethyl)-pyrrolidine-3-carboxylic acid] | 96.5
CCCOc1ccc(C2C(C(=O)O)C(c3ccc4c(c3)OCO4)CN2CC(=O)Nc2c(CC)cccc2CC)cc1 [Example 20, [2R,3R,4S]2-(4-Propoxyphenyl)-4-(1,3-benzodioxol-5-yl)-1-(N-((2,6-diethyl)phenylaminocarbonylmethyl)-pyrrolidine-3-carboxylic acid] | 95.5
CCCOc1ccc([C@H]2[C@H](C(=O)O)[C@@H](c3cc(OC)c4c(c3)OCO4)CN2CC(=O)Nc2c(CC)cccc2CC)cc1OC [Example 13, trans,trans-2-(3-methoxy-4-propoxyphenyl)-4-(7-methoxy-1,3-benzodioxol-5-yl)-1-((2,6-diethyl)phenylaminocarbonylmethyl)-pyrrolidine-3-carboxylic acid] | 91.3
CCCOc1ccc([C@H]2[C@H](C(=O)O)[C@@H](c3ccc4c(c3)OCO4)CN2CC(=O)Nc2c(CC)cccc2CC)cc1OC (racemic) [Example 9, trans,trans-2-(3-methoxy-4-propoxyphenyl)-4-(1,3-benzodioxol-5-yl)-1-((2,6-diethyl)phenylaminocarbonylmethyl)-pyrrolidine-3-carboxylic acid] | 94.8
COc1ccc([C@H]2[C@H](C(=O)O)[C@@H](c3ccc4c(c3)OCO4)CN2CC(=O)Nc2c(C)cccc2C)cc1 (racemic) [Example 11, trans,trans-2-(4-methoxyphenyl)-4-(1,3-benzodioxol-5-yl)-1-((2,6-dimethyl)phenylaminocarbonylmethyl)-pyrrolidine-3-carboxylic acid] | 96
CCOc1ccc([C@H]2[C@H](C(=O)O)[C@@H](c3ccc4c(c3)OCO4)CN2CC(=O)Nc2c(CC)cccc2CC)cc1F (racemic) [Example 7, trans,trans-2-(3-Fluoro-4-ethoxyphenyl)-4-(1,3-benzodioxol-5-yl)-1-((2,6-diethyl)phenylaminocarbonylmethyl)-pyrrolidine-3-carboxylic acid] | 94.5
COc1ccc([C@H]2[C@H](C(=O)O)[C@@H](c3ccc4c(c3)OCO4)CN2CC(=O)Nc2c(C(C)C)cccc2C(C)C)cc1 [Example 21, trans,trans-2-(4-methoxyphenyl)-4-(1,3-benzodioxol-5-yl)-1-((2,6-diisopropyl)phenylaminocarbonylmethyl)-pyrrolidine-3-carboxylic acid] | 97.1
COc1ccc([C@H]2[C@H](C(=O)O)[C@@H](c3ccc4c(c3)OCO4)CN2CC(=O)Nc2c(Br)cccc2Br)cc1 [Example 14, trans,trans-2-(4-methoxyphenyl)-4-(1,3-benzodioxol-5-yl)-1-((2,6-dibromo)phenylaminocarbonylmethyl)-pyrrolidine-3-carboxylic acid] | 96.6
